This test relates to human iPS cell Toe strain. As to the kind of experiment: Effect to promote differentiation from human iPS cells into insulin-producing cells (insulin-positive cell rate, Reference Example 1). The class given is cell-based. On the set-up: key to Activity: the sum of activity values at the two concentrations was obviously higher than the control untreated with compounds while being lower than the positive control was expressed as +; the sum was equivalent to the positive control was expressed as ++; the sum was higher than the positive control was expressed as +++. The conditions noted are these: activity intensity: sum of activity values (increment in insulin-positive cell rate) at 2 μM and 10 μM compared with positive control (compound of Synthesis Example 1). The source says:
The evaluation system of the effect (efficacy) to promote differentiation from human iPS cells into insulin-producing cells was constructed with reference to known information (Non Patent Document 6). Further, the medium used in each differentiation stage was also produced with reference to known information (differentiation media A to E (Media A to E) described in Non Patent Document 6 were used respectively for stages 1 to 5; however, a medium free from GLP-1 receptor agonist and nicotinamide was used as differentiation medium E).
In order to evaluate the efficacy of each compound, the compound of Synthesis Example 1 was used as a positive control, and dimethylsulfoxide (DMSO) (SIGMA, D2650) with a final concentration of 0.1% was used as a control untreated with compounds. Each compound was dissolved in DMSO, and two types of compound solutions were prepared so as to have final concentrations of 2 μM and 10 μM after the compound was added to the medium. In the following evaluation, the compound solutions were added to the medium to 0.1% that is the final concentration of DMSO.
First, induction from human iPS cell Toe strain (National Institutes of Biomedical Innovation, Health and Nutrition) into cells on day 7 of culture (2 days after replacement with differentiation medium C (cells in the differentiation process from FOXA2-positive primitive gut tube cells into PDX1-positive pancreatic progenitor cells)) was performed according to the method of Non Patent Document 6 for “inducing differentiation from human iPS cells into pancreatic β cells”, and the cells were collected and thereafter stored in liquid nitrogen using Bambanker (NIPPON Genetics Co, Ltd.) at 1×10^7 cells/mL/tube, to produce a cell stock for evaluation. The cell stock was dissolved at the start of the evaluation of efficacy, suspended in differentiation medium C for stage 3 (DMEM high glucose (Life technologies, 11965092), 0.25 μM SANT-1, 0.1 μM LDN193189 (Stemgent, 04-0074), 10 μM SB431542, 2 μM Retinoic acid (Stemgent, 04-0021), 1% B27 serum free supplement (Life technologies, 17504044) and thereafter seeded in a 96-well plate (Corning, #3340) coated with Synthemax II (Corning, #5656) at 1×10^5 cells/well. After culturing for 2 days, the medium was removed, and new differentiation medium C for stage 3 with the compound or only DMSO added was added thereto at 100 μL/well. After culturing for 2 days, the medium was removed, and new differentiation medium D for stage 4 (DMEM high glucose, 0.1 μM LDN193189, 5 μM TGF-β type I receptor kinase inhibitor II (Calbiochem 616452), 0.3 μM (−)-indolactam V (Enzo life science ALX-420-011-C300), 1% B27 serum free supplement) with the compound or only DMSO added was added thereto at 100 μL/well. After culturing for 2 to 3 days, the medium was removed, and new differentiation medium E for stage 5 (GLP-1 receptor agonist and nicotinamide-free; Knockout […] (Life technologies, 12660012), 1% B27 serum free supplement) with the compound or only DMSO added was added thereto at 200 μL/well. After culturing for 2 days, the medium was removed, and a 4% paraformaldehyde phosphorus acid buffer (Wako, 163-20145) was added thereto at 150 μL/well and left standing for 30 to 60 minutes at room temperature to fix the cells. A phosphorus acid buffer (PBS) (Takara, T9181) containing 1% Triton X-100 (Sigma, T8787) was left standing for 15 minutes at room temperature, then washed with PBS-T (Takara, T9183), and was blocked for 1 hour using 20% Blocking One (Nacalai tesque, Tokyo, Japan) diluted with PBS-T at room temperature. After the removal of Blocking One, guinea pig anti-insulin antibody (Abcam, ab7842) diluted 200-fold with 20% Blocking One was added thereto at 50 μL/well, followed by standing at 4° C. overnight. […]

As for `O=C1CC(C(=O)Nc2ncc(-c3ccc(OC(F)(F)F)cc3)s2)n2cccc21` (stereo not shown) [Example 58], the Activity result is “++”.
Next, `O=C1CCC(C(=O)Nc2nc3ccc(-c4ccc(OC(F)(F)F)cc4)cc3s2)n2cccc21` (stereo not shown) [Example 59]: “+++”.
Then `O=C1CCC(C(=O)Nc2nc3ccc(-c4ccc(OC(F)F)cc4)cc3s2)n2cccc21` (stereo not shown) [Example 60], with “++”; and `O=C1CCC(C(=O)Nc2nc3ccc(-c4ccc5c(c4)OC(F)(F)O5)cc3s2)n2cccc21` (stereo not shown) [Example 61], with “+”; and `Cc1cc2n(c1)C(C(=O)Nc1ncc(-c3ccc(OC(F)(F)F)cc3)s1)CCC2=O` (stereo not shown) [Example 62], with “+++”.
Consider `Cc1cc2n(c1)C(C(=O)Nc1ncc(-c3ccc(OC(C)(C)C)cc3)s1)CCC2=O` (stereo not shown) [Example 63], for which the Activity result is “+++”.
Next, `O=C1CCC(C(=O)Nc2ncc(-c3ccc(OC(F)(F)F)cc3)s2)n2cc(Cl)cc21` (stereo not shown) [Example 64]: “++”.
Then `CC1(C(=O)Nc2ncc(-c3ccc(OC(F)(F)F)cc3)s2)CCC(=O)c2cccn21` (stereo not shown) [Example 65], with “+++”; and `Cc1ccc(-c2cnc(NC(=O)C3(C)CCC(=O)c4cccn43)s2)cc1` (stereo not shown) [Example 66], with “++”; and `Cc1cccc(-c2cnc(NC(=O)C3(C)CCC(=O)c4cccn43)s2)c1` (stereo not shown) [Example 67], with “++”.
Next, `CC1(C(=O)Nc2ncc(-c3ccc4c(c3)OC(F)(F)O4)s2)CCC(=O)c2cccn21` (stereo not shown) [Example 68]: “++”; `CC(C)Oc1ccc(-c2cnc(NC(=O)C3(C)CCC(=O)c4cccn43)s2)cc1` (stereo not shown) [Example 69]: “++”; `Cc1cc(-c2cnc(NC(=O)C3(C)CCC(=O)c4cccn43)s2)ccc1OC(F)(F)F` (stereo not shown) [Example 70]: “++”.
As to `CC1(C(=O)Nc2ncc(-c3ccc(OC(F)(F)F)c(Cl)c3)s2)CCC(=O)c2cccn21` (stereo not shown) [Example 71], the Activity result is reported as “+++”.
Regarding `CC1(C(=O)Nc2ncc(-c3cccc(OC(F)(F)F)c3)s2)CCC(=O)c2cccn21` (stereo not shown) [Example 72], the Activity entry is reported as “+++”.
`O=C1CCC(C(=O)Nc2ccc(-c3ccc(OC(F)(F)F)cc3)cc2)n2cccc21` (stereo not shown) [Example 73]: the Activity result is given as “+”.
Next, `O=C1CCC(C(=O)Nc2ccc(-c3ccc4c(c3)OC(F)(F)O4)cc2)n2cccc21` (stereo not shown) [Example 74]: “+”; `O=C1CCC(C(=O)Nc2ccc(-c3ccc(OC(F)F)cc3)cc2)n2cccc21` (stereo not shown) [Example 75]: “+”.
Then `O=C1CCC(C(=O)Nc2ccc(-c3ccc(OC(F)(F)F)c(Cl)c3)cc2)n2cccc21` (stereo not shown) [Example 76], with “+”; and `O=C1CCC(C(=O)Nc2ccc(-c3ccc(OC(F)(F)F)cc3)cc2)n2c(Br)ccc21` (stereo not shown) [Example 77], with “+”; and `O=C1CCC(C(=O)Nc2ccc(-c3ccc(OC(F)(F)F)cc3)cc2F)n2cccc21` (stereo not shown) [Example 78], with “++”.
`O=C1CCC(C(=O)Nc2ccc(-c3ccc(OC(F)(F)F)c(Cl)c3)cc2F)n2cccc21` (stereo not shown) [Example 79]: the Activity entry was “+”.
In the case of `CC(C)(C)Oc1ccc(-c2ccc(NC(=O)C3CCC(=O)c4cccn43)c(F)c2)cc1` (stereo not shown) [Example 80], the Activity entry is listed as “+”.
Next, `Cc1cc(-c2ccc(OC(F)(F)F)cc2)ccc1NC(=O)C1CCC(=O)c2cccn21` (stereo not shown) [Example 81]: “+”; `O=C1CCC(C(=O)Nc2ccc(-c3ccc(OC(F)(F)F)cc3)cn2)n2cccc21` (stereo not shown) [Example 82]: “+”.
For `O=C1CCC(C(=O)Nc2ccc3nc(-c4ccc(OC(F)(F)F)cc4)sc3c2)n2cccc21` (stereo not shown) [Example 83], the Activity result is on record as “+”.
As to `Cc1nc(NC(=O)C2CCC(=O)c3cccn32)sc1-c1ccc2c(c1)OC(F)(F)O2` (stereo not shown) [Example 84], the Activity result is “+++”.
Then `Cc1nc(NC(=O)C2CCC(=O)c3cccn32)sc1-c1ccc(OCc2ccccc2)c(F)c1` (stereo not shown) [Example 85], with “+++”.
For the compound `Cc1nc(NC(=O)C2CCC(=O)c3cccn32)sc1-c1ccc(OCC(C)C)cc1` (stereo not shown) [Example 86], the Activity entry was “+++”.
For `Cc1nc(NC(=O)C2CCC(=O)c3cccn32)sc1-c1cnc(OCC(C)C)c(Cl)c1` (stereo not shown) [Example 87], the Activity entry was “+++”.
Then `Cc1nc(NC(=O)C2CCC(=O)c3cccn32)sc1-c1ccc(OCC(F)(F)F)cc1` (stereo not shown) [Example 88], with “+++”; and `Cc1cc(-c2sc(NC(=O)C3CCC(=O)c4cccn43)nc2C)ccc1OC(F)(F)F` (stereo not shown) [Example 89], with “+++”; and `Cc1nc(NC(=O)C2CCC(=O)c3cccn32)sc1C1=CCN(C(=O)OC(C)(C)C)CC1` (stereo not shown) [Example 90], with “+++”.
For `Cc1nc(NC(=O)C2CCC(=O)c3cccn32)sc1-c1ccc(OC(F)F)cc1` (stereo not shown) [Example 91], the Activity result is “+++”.
For the compound `Cc1cc(-c2ccc3nc(NC(=O)C4CCC(=O)c5cccn54)sc3c2)ccc1OC(F)(F)F` (stereo not shown) [Example 92], the Activity entry is given as “+++”.
Then `O=C1CCC(C(=O)Nc2nc3ccc(-c4ccc(Cl)cc4)cc3s2)n2cccc21` (stereo not shown) [Example 93], with “+++”; and `O=C1CCC(C(=O)Nc2nc3ccc(-c4ccc(F)cc4)cc3s2)n2cccc21` (stereo not shown) [Example 94], with “+++”; and `O=C(c1ccccc1)c1ccc(-c2cnc(NC(=O)C3CCC(=O)c4cccn43)s2)cc1` (stereo not shown) [Example 95], with “+++”.
In the case of `CC(C)c1nc(NC(=O)C2CCC(=O)c3cccn32)sc1-c1ccc(OC(F)(F)F)cc1` (stereo not shown) [Example 96], the Activity result is recorded as “+”.
On to `CC(C)C(=O)N1CC=C(c2cnc(NC(=O)C3CCC(=O)c4cccn43)s2)CC1` (stereo not shown) [Example 97], for which the Activity result was “++”.
Then `CC(C)NC(=O)N1CC=C(c2cnc(NC(=O)C3CCC(=O)c4cccn43)s2)CC1` (stereo not shown) [Example 98], with “++”.
Next, `COC(=O)c1nc(NC(=O)C2CCC(=O)c3cccn32)sc1-c1ccc(OCC(F)(F)F)cc1` (stereo not shown) [Example 99]: “++”.
For the compound `COC(=O)c1nc(NC(=O)C2CCC(=O)c3cccn32)sc1-c1ccc(OC(C)(C)C)cc1` (stereo not shown) [Example 100], the Activity result was “+”.

For the origin of these results see patent US20220339260A1, “METHOD FOR PRODUCING INSULIN-PRODUCING CELL USING DIHYDROINDOLIZINONE DERIVATIVES” (TOKYO INSTITUTE OF TECHNOLOGY, priority 2019, published 2022).
